Data published in ChEMBL document CHEMBL5126536, “Small molecules targeting γ-secretase and their potential biological applications” (Eur J Med Chem, 2022).
Values belong to the compound of their own block, whether it stands above or below them.

Legend:
[1] = Inhibition of amyloid beta (unknown origin) production; parameters: species or system Homo sapiens
[2] = Inhibition of Notch cleavage in transgenic HEK293 cells; type: cell-based; details: Homo sapiens
[3] = target: Amyloid-beta precursor protein (Homo sapiens, UniProt P05067); experiment: Modulation of amyloid beta 42 in human H4 cells expressing APP751 incubated overnight by ELISA; type: cell-based
Amyloid-beta precursor protein, sequence (P05067 whole entry): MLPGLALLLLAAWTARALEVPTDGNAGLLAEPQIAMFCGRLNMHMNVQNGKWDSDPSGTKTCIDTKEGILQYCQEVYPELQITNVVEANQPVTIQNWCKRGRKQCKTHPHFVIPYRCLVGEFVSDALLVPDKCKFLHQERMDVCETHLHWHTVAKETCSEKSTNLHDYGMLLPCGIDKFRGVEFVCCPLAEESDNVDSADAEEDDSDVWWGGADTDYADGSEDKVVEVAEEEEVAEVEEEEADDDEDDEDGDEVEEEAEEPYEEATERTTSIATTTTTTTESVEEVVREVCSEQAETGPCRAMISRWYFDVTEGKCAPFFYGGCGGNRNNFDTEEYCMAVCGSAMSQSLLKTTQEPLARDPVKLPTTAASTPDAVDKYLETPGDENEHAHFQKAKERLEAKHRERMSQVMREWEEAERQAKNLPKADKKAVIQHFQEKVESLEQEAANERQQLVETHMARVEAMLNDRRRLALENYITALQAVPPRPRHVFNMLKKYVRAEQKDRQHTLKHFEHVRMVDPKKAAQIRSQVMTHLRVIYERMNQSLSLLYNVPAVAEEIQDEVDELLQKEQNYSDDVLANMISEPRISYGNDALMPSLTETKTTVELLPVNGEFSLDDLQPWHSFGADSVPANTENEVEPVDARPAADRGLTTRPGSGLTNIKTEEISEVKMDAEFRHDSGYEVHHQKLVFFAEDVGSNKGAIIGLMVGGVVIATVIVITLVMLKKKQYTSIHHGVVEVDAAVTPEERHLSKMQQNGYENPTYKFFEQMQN

[4] = Modulation of gamma-secretase in human H4 cells expressing APPswe mutant assessed as reduction in amyloid beta 42 by ELISA; type: cell-based
[5] = Oral bioavailability in rat; type: ADME, organism-based; details: in vivo
[6] = Half life in rat; type: ADME; details: in vivo
[7] = tested on: Mus musculus; experiment: Modulation of gamma secretase in hippocampus of C57BL mouse assessed as reduction in amyloid beta 42 at 3 mg/kg, po measured for 0.5 to 18 hrs by ELISA relative to control; type: organism-based; parameters: scale not given: the % may be the effect or the level left; details: time 0.5-18 hrs
[8] = tested on: Mus musculus; experiment: Modulation of gamma secretase in hippocampus of C57BL mouse assessed as reduction in amyloid beta 42 at 10 mg/kg, po measured for 0.5 to 18 hrs by ELISA relative to control; type: organism-based; details: filed as modulator, time 0.5-18 hrs
[9] = Inhibition of Notch in human H4 cells; type: cell-based
[10] = target: Gamma-secretase; experiment: Inhibition of gamma-secretase in human H4 cells assessed as reduction in amyloid beta 42; type: cell-based
[11] = tested on: Mus musculus; experiment: Antialzheimer activity in Tg2576 mouse model assessed as decrease in amyloid beta 42 level at 10 mg/kg measured on day 8; type: functional; parameters: scale not given: the % may be the effect or the level left; details: time 8 day
[12] = tested on: Mus musculus; experiment: Antialzheimer activity in Tg2576 mouse model assessed as decrease in amyloid beta 40 level at 10 mg/kg measured on day 8; type: functional; parameters: scale not given: the % may be the effect or the level left; details: time 8 day
[13] = species on record: Homo sapiens; experiment: Selectivity ratio, ratio of IC50 for gamma-secretase (unknown origin) to IC50for Notch (unknown origin)
[14] = Metabolic stability in human liver microsomes assessed as half life; type: ADME, Microsome
[15] = target: Gamma-secretase; experiment: Inhibition of gamma-secretase (unknown origin) assessed as inhibition of Amyloid beta 40 production by cell-free assay; type: protein-complex assay, Homo sapiens
[16] = target: Gamma-secretase; experiment: Inhibition of gamma-secretase (unknown origin) assessed as inhibition of Amyloid beta 42 production by cell-free assay; type: protein-complex assay, Homo sapiens
[17] = Ratio of drug concentration in Tg2576 mouse brain to plasma at 1 to 30 mg/kg, po; type: ADME, organism-based; details: dose 1-30 mg/kg, read-out: BPR
[18] = Toxicity in Sprague-Dawley rat assessed as maximum tolerated dose administered orally upto 28 days consecutively; details: in vivo, route po, time < 28 day
[19] = Inhibition of Notch (unknown origin) by cell-based assay; details: Homo sapiens

IC50 [1]: 0.082 nM | IC50 [2]: 0.39 nM
Structure (SMILES): C[C@H](NC(=O)[C@@H](O)c1cc(F)cc(F)c1)C(=O)N[C@@H]1C(=O)N(C)c2ccccc2-c2ccccc21

EC50 [3]: 35 nM
Structure (SMILES): COc1nc(C2=NOC[C@H](c3cc4ccccc4o3)N2)ccc1-n1cnc(C)c1

IC50 [4]: 3600 nM | bioavailability [5]: 50% | half-life [6]: 20 h
Structure (SMILES): O=C(O)C1(c2ccc(-c3ccc(Cl)c(Cl)c3)c(F)c2)CC1

Structure (SMILES): COc1cc(-c2nnc3n2CCC[C@]3(Oc2cc(F)c(F)c(F)c2)C(C)(C)O)ccc1-c1cnc(C)o1
Activity [7]: 23.2% | inhibition [8]: 46.5%

IC50 [9]: 14.1 nM | IC50 [10]: 10.9 nM
Structure (SMILES): CC(C)[C@H](O)C(=O)N[C@@H](C)C(=O)N[C@@H]1C(=O)N(C)CCc2ccccc21
Activity [11]: 22% | Activity [12]: 22%

Structure (SMILES): O=S(=O)(N[C@H](CO)C(C(F)(F)F)C(F)(F)F)c1ccc(Cl)s1 [BEGACESTAT]
Ratio IC50 [13]: 16.8 | half-life [14]: 1.5 h | EC50 [15]: 14.8 nM | EC50 [16]: 12.4 nM | Kp [17]: > 1 | MTD at 672 h [18]: 2000 mg/kg/day

IC50 [19]: 0.41 nM
Structure (SMILES): C[C@H](NC(=O)CCC(F)(F)F)C(=O)N[C@@H]1C(=O)N(CCO)c2ncccc2-c2ccccc21
